{"source": "patent EP3263567A1", "about": "“CARBOXAMIDE-SUBSTITUTED PYRAZOLES AND TRI(HETERO)ARYL-PYRAZOLES FOR USE IN METHODS OF TREATING AND / OR PREVENTING CARDIOVASCULAR DISEASES AND / OR COMORBIDITIES THEREOF” (AiCuris Anti-infective Cures GmbH, priority 2016, dated 2018)", "key": {"in vivo": {"experiment": "in vivo", "conditions": "both, Beagle, dog, po, 30 mg/kg", "quoted_text": "A single oral dose of 30 or 100 mg/kg was applied to dogs. Pharmacokinetic parameters were assessed and compared.\nMale and female Beagle dogs.\nPlasma concentrations were obtained by LC-MS/MS measurements."}, "Solubility of compound A": {"experiment": "Solubility of compound A", "format": "physicochemical", "conditions": "for solubility: aqueous media"}, "Beagle dogs": {"system": "Beagle dogs", "experiment": "4-week beagle dog experiment, toxicity observations", "format": "in vivo", "procedure": "[drawing 93] i.e. 4-[5-[3-Chloro-5-(trifluoromethoxy)phenyl]-1-(pyridin-3-yl)-1H-pyrazol-3-yl]-5,6-dihydro-7H-pyrrolo[3,4-d]pyrimidin-7-one, was administered in a 4-week beagle dog experiment with integrated non-invasive telemetric electrocardiography (ECG) measurements for determining its cardiovascular effects; specifically its effects on the heart rate.\n32 Beagle dogs (16 males and 16 females) with parameters in the normal range were tested for cardiovascular effects of Compound A administration and divided into the study groups indicated below.\nDuration of study: • 4 acclimatization weeks • 4 test weeks • 4 additional test weeks for the animals scheduled for the recovery period.\nThe test compound A-formulation of the appropriate concentration was administered by oral administration at a constant administration volume/kg b.w.\n• Groups 1 and 4: Twice daily at an 8-hour interval for 28 consecutive days. • Groups 2 to 3: Once daily for 28 consecutive days.\nThe animals were observed individually before and after dosing at each time of dosing for any signs of behavioural changes, reaction to treatment or illness.\nKennel side observations included skin/fur, eyes, mucous membranes, respiratory and circulatory systems, somatomotor activity and behaviour patterns. The onset, intensity, and duration of any signs observed were recorded."}}, "data": [{"smiles": "O=C1NCc2c1ncnc2-c1cc(-c2cc(Cl)cc(OC(F)(F)F)c2)n(-c2cccnc2)n1", "note": "[Compound A, 4-[5-[3-Chloro-5-(trifluoromethoxy)phenyl]-1-(pyridin-3-yl)-1H-pyrazol-3-yl]-5,6-dihydro-7H-pyrrolo[3,4-d]pyrimidin-7-one]", "values": [{"measurement": "AUC(0-inf)", "setting": "in vivo", "result": 297, "unit": "µg·h/mL"}, {"measurement": "solubility", "setting": "Solubility of compound A; pH 7.4, aqueous buffer", "result": "50 to 70", "unit": "µg/mL"}, {"measurement": "solubility", "setting": "Solubility of compound A; simulated gastric fluid, pH 2.0", "result": 400, "unit": "µg/mL"}, {"measurement": "Solubility (test item description)", "setting": "Solubility of compound A; description of the batch used in Example 3", "result": "soluble in water"}, {"measurement": "solubility in commonly used pharmaceutical excipients", "setting": "Solubility of compound A; oils, cosolvents, surfactants", "result": "very low solubility"}, {"measurement": "mortality", "setting": "Beagle dogs; 3, 10 or 2 x 50 mg/kg b.w./day for 4 weeks, treatment and recovery period", "result": "None"}, {"measurement": "signs of systemic intolerance (behaviour, external appearance, faeces)", "setting": "Beagle dogs; 3, 10 or 2 x 50 mg/kg b.w./day oral for 4 weeks and 4-week recovery", "result": "No compound A-related signs of systemic intolerance"}, {"measurement": "eyes and auditory acuity", "setting": "Beagle dogs; 4 weeks", "result": "No changes or adverse effects"}, {"measurement": "haematology, clinical biochemistry, urinalysis, ophthamological and auditory examination, organ weights, bone marrow, histopathology", "setting": "Beagle dogs; 4 weeks", "result": "No compound A-related influences"}, {"measurement": "macroscopic inspection at necropsy", "setting": "Beagle dogs; 4 weeks", "result": "did not reveal any morphological changes"}, {"measurement": "histopathological examination", "setting": "Beagle dogs; end of main study and of 4-week recovery period", "result": "did not reveal any Compound A-related morphological changes"}, {"measurement": "body weight and body weight gain; food and drinking water consumption", "setting": "Beagle dogs; treatment period", "result": "No compound A-related influence"}]}]}
